Legend:
AMBEL (Ragweed, Common) = experiment: Postemergence herbicidal evaluation; assay type: in vivo, Ambrosia artemisifolia; details: postemergence
Method in brief: (§1)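 First, seedlings were raised for around two weeks. Next, test material in 50/50 acetone/water containing 0.5% TWEEN 20 was sprayed through a nozzle at 40 psi, equivalent to about 0.0156–0.500 kg/ha. Finally, after 4–5 weeks in the greenhouse, plants were rated 0–9.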

ZEAMX (Corn, Field) = experiment: Postemergence herbicidal evaluation; assay type: in vivo, Zea mays; details: postemergence
Method in brief: as §1

[1] = tested on: IPOHE (Morningglory, Ivyleaf); experiment: Postemergence herbicidal evaluation; assay type: in vivo, Ipomoea hederacea; details: postemergence
Method in brief: as §1

[2] = tested on: GLXMAW (Soybean, Williams); experiment: Postemergence herbicidal evaluation; assay type: in vivo, Glycine max, (L.) Merr. cv Williams; details: postemergence
Method in brief: as §1

[3] = tested on: CHEAL (Lambsquarters, Common); experiment: Preemergence herbicidal evaluation; assay type: in vivo, Chenopodium album; details: rated 4-5 weeks after treatment
Method in brief: (§2)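 Visual 0-9 rating vs control (stand, vigor, malformation, size, chlorosis, overall appearance), scored 4-5 wk after spraying. Seeded soil cups were treated preemergence with compound in aqueous acetone, ~0.0156-0.500 kg/ha equivalent.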

[4] = tested on: CHEAL (Lambsquarters, Common); experiment: Postemergence herbicidal evaluation; assay type: in vivo, Chenopodium album; details: postemergence
Method in brief: as §1

SETVI (Foxtail, Green) [5] = experiment: Preemergence herbicidal evaluation; assay type: in vivo, Setaria viridis; details: rated 4-5 weeks after treatment
Method in brief: as §2

ECHCG (Barnyardgrass) = experiment: Preemergence herbicidal evaluation; assay type: in vivo, Echinochloa crus-galli; details: rated 4-5 weeks after treatment
Method in brief: as §2

GALAP (Galium) [6] = experiment: Preemergence herbicidal evaluation; assay type: in vivo, Galium aparine; details: rated 4-5 weeks after treatment
Method in brief: as §2

[7] = tested on: GLXMAW (Soybean, Williams); experiment: Preemergence herbicidal evaluation; assay type: in vivo, Glycine max, (L.) Merr. cv Williams; details: rated 4-5 weeks after treatment
Method in brief: as §2

GALAP (Galium) [8] = experiment: Postemergence herbicidal evaluation; assay type: in vivo, Galium aparine; details: postemergence
Method in brief: as §1

SETVI (Foxtail, Green) [9] = experiment: Postemergence herbicidal evaluation; assay type: in vivo, Setaria viridis; details: postemergence
Method in brief: as §1

ABUTH (Velvetleaf) = experiment: Postemergence herbicidal evaluation; assay type: in vivo, Abutilon theophrasti; details: postemergence
Method in brief: as §1

[10] = tested on: SAGPY (Arrowhead (Pygmaea)); experiment: Preemergence weed control under flooded paddy conditions; assay type: in vivo, Sagittaria pygmaea; details: rated 3-4 weeks after treatment
Method in brief: (§3)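 Visual injury scored 0-9 against control three to four weeks post-treatment, greenhouse-grown. Application: acetone/water (50/50) solutions dosed directly into flood water (1.5-3 cm over silt loam, planted top 0.5 cm), roughly 0.0313 to 0.500 kg/ha active ingredient.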

CYPSE (Flatsedge) = experiment: as above; assay type: in vivo, Cyperus serotinus; details: rated 3-4 weeks after treatment
Method in brief: as §3

[11] = tested on: IPOHE (Morningglory, Ivyleaf); experiment: Preemergence herbicidal evaluation; assay type: in vivo, Ipomoea hederacea; details: rated 4-5 weeks after treatment
Method in brief: as §2

CYPIR (Rice Flatsedge) = experiment: Preemergence weed control under flooded paddy conditions; assay type: in vivo, Cyperus iria; details: rated 3-4 weeks after treatment
Method in brief: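 First, seeds or propagules go into the top 0.5 cm of silt loam; next, water is held 1.5 to 3 cm over the soil; then compound (50/50 acetone/water) is pipetted into it at about 0.0313 to 0.500 kg/ha; finally plants are rated visually 0-9 after three to four weeks.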

CCOC(=O)CN1C(=O)C(CC(=O)NS(=O)(=O)C(C)C)SC1=Nc1cc(-n2c(=O)cc(C(F)(F)F)n(C)c2=O)c(F)cc1Cl (centres unmarked) [Compound 117, Ethyl 2-{{2-chloro-5-[3,6-dihydro-3-methyl-2,6-dioxo-4-(trifluoromethyl)-1(2H)-pyrimidinyl]-4-fluorophenyl}imino}-5-{[(isopropylsulfonyl)-carbamoyl]methyl}-4-oxo-3-thiazolidineacetate]
herbicidal rating AMBEL (AMBEL (Ragweed, Common); rate 0.0158 kg/ha): 4.0 | herbicidal rating AMBEL (AMBEL (Ragweed, Common); rate 0.0315 kg/ha): 5.0 | herbicidal rating AMBEL (AMBEL (Ragweed, Common); rate 0.0630 kg/ha): 7.0 | herbicidal rating ZEAMX (ZEAMX (Corn, Field); rate 0.0158 kg/ha): 4.5 | herbicidal rating ZEAMX (ZEAMX (Corn, Field); rate 0.0315 kg/ha): 5.0 | herbicidal rating ZEAMX (ZEAMX (Corn, Field); rate 0.0630 kg/ha): 5.0 | herbicidal rating IPOHE ([1]; rate 0.0158 kg/ha): 9.0 | herbicidal rating IPOHE ([1]; rate 0.0315 kg/ha): 9.0 | herbicidal rating IPOHE ([1]; rate 0.0630 kg/ha): 9.0 | herbicidal rating GLXMAW ([2]; rate 0.0158 kg/ha): 5.0 | herbicidal rating GLXMAW ([2]; rate 0.0315 kg/ha): 5.0 | herbicidal rating GLXMAW ([2]; rate 0.0630 kg/ha): 6.0 | Preemergence herbicidal rating CHEAL ([3]; rate 0.0156 kg/ha): 9.0 | Preemergence herbicidal rating CHEAL ([3]; rate 0.0313 kg/ha): 9.0 | Preemergence herbicidal rating CHEAL ([3]; rate 0.0625 kg/ha): 9.0 | Preemergence herbicidal rating CHEAL ([3]; rate 0.1250 kg/ha): 6.0 | Preemergence herbicidal rating CHEAL ([3]; rate 0.2500 kg/ha): 9.0 | herbicidal rating CHEAL ([4]; rate 0.0158 kg/ha): 0.0 | herbicidal rating CHEAL ([4]; rate 0.0315 kg/ha): 4.0 | herbicidal rating CHEAL ([4]; rate 0.0630 kg/ha): 9.0 | Preemergence herbicidal rating SETVI (SETVI (Foxtail, Green) [5]; rate 0.0156 kg/ha): 1.0 | Preemergence herbicidal rating SETVI (SETVI (Foxtail, Green) [5]; rate 0.0313 kg/ha): 0.0 | Preemergence herbicidal rating SETVI (SETVI (Foxtail, Green) [5]; rate 0.0625 kg/ha): 1.0 | Preemergence herbicidal rating SETVI (SETVI (Foxtail, Green) [5]; rate 0.1250 kg/ha): 0.0 | Preemergence herbicidal rating SETVI (SETVI (Foxtail, Green) [5]; rate 0.2500 kg/ha): 0.0 | Preemergence herbicidal rating ECHCG (ECHCG (Barnyardgrass); rate 0.0156 kg/ha): 0.0 | Preemergence herbicidal rating ECHCG (ECHCG (Barnyardgrass); rate 0.0313 kg/ha): 0.0 | Preemergence herbicidal rating ECHCG (ECHCG (Barnyardgrass); rate 0.0625 kg/ha): 0.0 | Preemergence herbicidal rating ECHCG (ECHCG (Barnyardgrass); rate 0.1250 kg/ha): 0.0 | Preemergence herbicidal rating ECHCG (ECHCG (Barnyardgrass); rate 0.2500 kg/ha): 0.0 | Preemergence herbicidal rating GALAP (GALAP (Galium) [6]; rate 0.0156 kg/ha): 0.0 | Preemergence herbicidal rating GALAP (GALAP (Galium) [6]; rate 0.0313 kg/ha): 0.0 | Preemergence herbicidal rating GALAP (GALAP (Galium) [6]; rate 0.0625 kg/ha): 0.0 | Preemergence herbicidal rating GALAP (GALAP (Galium) [6]; rate 0.1250 kg/ha): 3.0 | Preemergence herbicidal rating GALAP (GALAP (Galium) [6]; rate 0.2500 kg/ha): 7.0 | Preemergence herbicidal rating GLXMAW ([7]; rate 0.0156 kg/ha): 0.0 | Preemergence herbicidal rating GLXMAW ([7]; rate 0.0313 kg/ha): 0.0 | Preemergence herbicidal rating GLXMAW ([7]; rate 0.0625 kg/ha): 1.0 | Preemergence herbicidal rating GLXMAW ([7]; rate 0.1250 kg/ha): 1.0 | Preemergence herbicidal rating GLXMAW ([7]; rate 0.2500 kg/ha): 1.0 | herbicidal rating GALAP (GALAP (Galium) [8]; rate 0.0158 kg/ha): 1.0 | herbicidal rating GALAP (GALAP (Galium) [8]; rate 0.0315 kg/ha): 1.0 | herbicidal rating GALAP (GALAP (Galium) [8]; rate 0.0630 kg/ha): 1.0 | herbicidal rating SETVI (SETVI (Foxtail, Green) [9]; rate 0.0158 kg/ha): 1.0 | herbicidal rating SETVI (SETVI (Foxtail, Green) [9]; rate 0.0315 kg/ha): 2.0 | herbicidal rating SETVI (SETVI (Foxtail, Green) [9]; rate 0.0630 kg/ha): 2.0 | herbicidal rating ABUTH (ABUTH (Velvetleaf); rate 0.0158 kg/ha): 9.0 | herbicidal rating ABUTH (ABUTH (Velvetleaf); rate 0.0315 kg/ha): 9.0 | herbicidal rating ABUTH (ABUTH (Velvetleaf); rate 0.0630 kg/ha): 9.0 | herbicidal effect rating, SAGPY ([10]; 0.0313 kg/ha): 0.0 | herbicidal effect rating, SAGPY ([10]; 0.0625 kg/ha): 0.0 | herbicidal effect rating, SAGPY ([10]; 0.1250 kg/ha): 0.0 | herbicidal effect rating, SAGPY ([10]; 0.2500 kg/ha): 0.0 | herbicidal effect rating, CYPSE (CYPSE (Flatsedge); 0.0625 kg/ha): 7.0 | herbicidal effect rating, CYPSE (CYPSE (Flatsedge); 0.1250 kg/ha): 9.0 | herbicidal effect rating, CYPSE (CYPSE (Flatsedge); 0.2500 kg/ha): 9.0 | Preemergence herbicidal rating IPOHE ([11]; rate 0.0156 kg/ha): 0.0 | Preemergence herbicidal rating IPOHE ([11]; rate 0.0313 kg/ha): 0.0 | Preemergence herbicidal rating IPOHE ([11]; rate 0.0625 kg/ha): 0.0 | Preemergence herbicidal rating IPOHE ([11]; rate 0.1250 kg/ha): 0.0 | Preemergence herbicidal rating IPOHE ([11]; rate 0.2500 kg/ha): 9.0 | herbicidal effect rating, CYPIR (CYPIR (Rice Flatsedge); 0.0313 kg/ha): 0.0 | herbicidal effect rating, CYPIR (CYPIR (Rice Flatsedge); 0.0625 kg/ha): 2.0 | herbicidal effect rating, CYPIR (CYPIR (Rice Flatsedge); 0.1250 kg/ha): 5.0 | herbicidal effect rating, CYPIR (CYPIR (Rice Flatsedge); 0.2500 kg/ha): 6.0

— patent US20020137929A1, “1 - (3-heterocyclylphenyl) isothiourea, -isourea, -guanidine and -amidine herbicidal agents” (Intellectual Property Department, BASF Aktiengesellschaft, priority 1998, published 2002)
